Results published in publication PMC10740425, “How Deep Learning in Antiviral Molecular Profiling Identified Anti-SARS-CoV-2 Inhibitors” (Biomedicines, 2023).

Experiments:
SARS-CoV-2 [1] = conditions: Calu-3 cells, 5 µM, pre-treated 2 h, MOI 0.1, 72 h
Calu-3 cells = conditions: uninfected Calu-3 cells, concentrations up to 10 µM, normalized to DMSO
[2] = Mouse infection model, body weight changes; type: in vivo, BALB/C mice; conditions: infected mice, 5 mg/kg intranasally, four-day observation
SARS-CoV-2 [3] = type: cell-based; conditions: Calu-3 cells, treated 1 h post-infection, up to 10 µM, 72 h

| SMILES | antiviral activity (intracellular virus, immunofluorescence staining) (SARS-CoV-2 [1]) | cellular toxicity (Calu-3 cells) | weight changes versus control group [2] | viral progeny / inhibitory effect (plaque assay, Western blotting) (SARS-CoV-2 [3]) |
| --- | --- | --- | --- | --- |
| Cn1cnc([N+](=O)[O-])c1Sc1ncnc2nc[nH]c12 [azathioprine] | antiviral activity comparable to established nucleoside analog inhibitors | low cellular toxicity | no significant difference in weight changes | significant reduction in viral progeny |
| CC(C)C(=O)OC[C@H]1O[C@@H](n2ccc(NO)nc2=O)[C@H](O)[C@@H]1O [molnupiravir] |  |  |  | moderate inhibitory effects |
| O=P(O)(O)OC[C@H]1O[C@@H](n2cnc3c(S)ncnc32)[C@H](O)[C@@H]1O [thioinosinic acid] |  |  | no significant difference in weight changes | notable antiviral efficacy |
